Test system: S. cerevisiae tim23-1 mutant growth, luminescence
Test: tim23-1 mutant yeast growth inhibitors, dose response, luminescence, uHTS hits (AID 493002);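 further: yeast grown roughly 22 hours at 25 °C before the luminescence read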

Work on Cc1cc(C(=O)Nc2ccc(Br)cn2)sc1C yielded an IC50 of 21.1 µM.

With CC(C)N=c1scc(-c2ccco2)n1/N=C/c1ccc(O)c(O)c1 the IC50 was 11.9 µM.

CCOC(=O)c1cccc(OC(=O)CCNC(=O)c2ccc(Cl)cc2)c1 gave an IC50 of 13.1 µM.

Cc1csc2nc(O)c(C(=O)NCCC3=CCCCC3)c(=O)n12 was tested, and the IC50 was 4.88 µM.

With COc1ccc(C(=O)N/N=C\c2coc3ccccc3c2=O)cc1 the IC50 was 13.7 µM.

Compound CCOC(=O)Nc1ccc2c(c1)Nc1ccccc1S2 has an IC50 of 11.3 µM.

With O=S(=O)(Nc1cccc(-c2nc3cccnc3s2)c1)c1ccc2c(c1)OCCO2 the IC50 was 11.6 µM.

Work on O=C(NC1CCCCC1)c1c(O)nc2sccn2c1=O yielded an IC50 of 16.4 µM.

Compound O=C(Nc1ccccc1)C1C(c2ccccc2)C1(Cl)Cl (configuration not stated) has an IC50 of 14.9 µM.

CCc1nc(SCc2ccccn2)c2c(=O)n(C)c(=O)n(C)c2n1 showed an IC50 of 16.3 µM.

Compound N#C/C(C(N)=O)=c1/ccc2c(c1)N1C3=C(CCCC3)CC3CCCCC31N=2 (configuration not stated) has an IC50 of 7.43 µM.

c1ccc(N=Nc2cn[nH]c2-c2ccco2)cc1 showed an IC50 of 11.3 µM.

Cc1ccc(SCC(=O)OCn2nnc3ccccc3c2=O)cc1C was tested, and the IC50 was 9.99 µM.

For Cc1[nH][nH]c(=O)c1C(c1ccc(-c2ccc(F)cc2)o1)c1c(C)[nH][nH]c1=O, the IC50 was 7.74 µM.

For CCN(CC)c1ccc(/C=N/NC(=O)c2ccc3c(c2)OCCO3)cc1, the IC50 was 11.3 µM.

With O=C(Nc1cccc(NC(=O)c2cccs2)c1)c1ccc(Br)o1 the IC50 was 9.28 µM.

O=C(CC(=O)c1c(F)cccc1Cl)c1ccccc1O gave an IC50 of 15.7 µM.

Compound COc1ccc2c(C(=O)CCl)c[nH]c2c1 has an IC50 of 22.5 µM.

In the case of O=C(Nc1ccc2c(c1)OCCO2)c1cccc(Br)c1, the IC50 is reported as 14.5 µM.

With Cc1ccc2[nH]cc(C(=O)CCl)c2c1 the IC50 was 6.02 µM.

Work on COc1ccc(NCc2ccc([N+](=O)[O-])s2)cc1 yielded an IC50 of 6.99 µM.

CCOc1cc2c3c(c1)C(C)CC(C)(C)N3C(=O)C2=O (configuration not stated) gave an IC50 of 14.1 µM.

O=C(Nc1nc2ccccc2s1)C1CCCN1S(=O)(=O)c1ccc(Cl)cc1 (configuration not stated) gave an IC50 of 8.08 µM.

Work on CC1CCC(NC(=O)c2cc(C3CC3)nn2-c2ccccc2)CC1 (configuration not stated) yielded an IC50 of 15.8 µM.

In the case of O=C(/C=C/c1ccccc1Cl)Nc1ccccc1, the IC50 is reported as 12.2 µM.

With Cc1ccc(OCc2cc(C(=O)NCc3cnn(-c4cccc(F)c4)c3)no2)cn1 the IC50 was 14.8 µM.

With COC(=O)c1cccc(-c2ccc(C(c3c(C)[nH][nH]c3=O)c3c(C)[nH][nH]c3=O)o2)c1 the IC50 was 15.1 µM.

For CC1CCCCN1C(=O)Nc1cccc(Cl)c1 (configuration not stated), the IC50 was 14.1 µM.

Work on COc1ccc2c(=O)c3c(=O)n(Cc4ccco4)c(-c4ccc(C)cc4)nc3oc2c1 yielded an IC50 of 20 µM.

Work on N#C/C(=C\c1c[nH]c2ccccc12)C(=O)NC1CCCC1 yielded an IC50 of 31.5 µM.

Compound Cc1ccc2oc(C(Cl)(Cl)Cl)cc(=O)c2c1 has an IC50 of 4.38 µM.

Work on O=c1oc(Cl)c(Cl)c2ccccc12 yielded an IC50 of 3.83 µM.

With CCOC(=O)c1c(C)oc2c1c(C(c1cccnc1)N1CCCCC1)c(O)c1ccccc12 (configuration not stated) the IC50 was 21.5 µM.

For Nc1cccc(-c2nc3ccc(C(=O)c4ccccc4)cc3[nH]2)c1, the IC50 was 10.7 µM.

With N=C1/C(=C\c2coc3ccccc3c2=O)C(=O)N=C2SC=CN12 the IC50 was 8.9 µM.

In the case of CC1=NN(c2ccccc2)C(=O)/C1=C/c1c(O)n(-c2ccc(F)c(Cl)c2)[nH]c1=O, the IC50 is reported as 24.3 µM.

In the case of Cc1cc(NC(=O)c2ccco2)sc1C, the IC50 is reported as 18 µM.

With Oc1ccc(-c2csc(Nc3ccccn3)n2)c(O)c1 the IC50 was 24.9 µM.

Work on Cc1cccc(NC(=O)c2cc3ccccc3o2)c1 yielded an IC50 of 13 µM.

c1ccc(-c2nc(NCc3cccs3)c3ccccc3n2)cc1 showed an IC50 of 12.7 µM.

For NS(=O)(=O)c1ccc(N=Cc2c(O)n(C3CCCCC3)c(=O)n(C3CCCCC3)c2=O)cc1, the IC50 was 14.4 µM.

In the case of O=c1c2ccccc2nc(-c2ccc([N+](=O)[O-])cc2)n1O, the IC50 is reported as 7.67 µM.

COCCn1c(C)cc(C(=O)COC(=O)c2ccc([N+](=O)[O-])o2)c1C showed an IC50 of 6.98 µM.

With C#CCOCCOCCOCCNc1nc(N2CCN(C(=O)CCCCCCCCCCNC(=O)[C@H](CCCCN)n3cc(CCO)nn3)CC2)nc(N2CCN(C(=O)CCCCCCCCCCNC(=O)[C@H](CCCCN)n3cc(C[C@@H](C)CC)nn3)CC2)n1 the IC50 was 17.1 µM.

O=[N+]([O-])c1ccc(N/N=C/c2cccc(O)c2)cc1 gave an IC50 of 6.99 µM.

In the case of COc1cc(OC)cc(C(=O)Nc2ccc(Nc3ccccc3)cc2)c1, the IC50 is reported as 9.92 µM.

CCCCCOC(=O)Cc1c(C)nc(-c2ccccc2)[nH]c1=O was tested, and the IC50 was 13.2 µM.

Cc1ccc(Nc2nc3ccccc3s2)c(C)c1 showed an IC50 of 11.1 µM.

In the case of COc1ccc(C(=O)c2sc(Nc3ccccc3F)nc2N)cc1, the IC50 is reported as 8.51 µM.

Compound Cc1ccc(-c2nn(-c3ccccc3)cc2NC(=O)CCl)cc1 has an IC50 of 4.31 µM.

With CNC(=S)N/N=C/c1cc(Br)cc(Br)c1O the IC50 was 3.14 µM.

Cc1ccc2nc(-c3ccc(N)cc3)sc2c1 was tested, and the IC50 was 9.95 µM.

In the case of COc1cccc(CNn2c(-c3cccc(C)c3)nc3ccccc3c2=O)c1O, the IC50 is reported as 10.1 µM.

Compound CCCCc1cc(O)c(CCCC)c(O)c1 has an IC50 of 3.69 µM.

With CSc1nnc(C(C)(C)C)c(=O)n1/N=C/c1ccccc1 the IC50 was 13.6 µM.

O=c1c2ccccc2[nH]c(=S)n1CCN1CCC(=C(c2ccc(F)cc2)c2ccc(F)cc2)CC1 gave an IC50 of 5.44 µM.

In the case of Cc1ccc(S(=O)(=O)Oc2ccccc2C=C2C(=O)N(C)C(=O)N(C)C2=O)cc1, the IC50 is reported as 4.22 µM.

Work on O=C(/C=C/c1ccccc1)Oc1cccc2cccnc12 yielded an IC50 of 21.3 µM.

Compound Cc1ccn2cc(-c3ccc(NC(=O)c4ccco4)cc3)nc2c1 has an IC50 of 17.6 µM.

COc1ccc(N2CCN(c3nc4cc(C)ccc4cc3C=O)CC2)cc1 showed an IC50 of 24.9 µM.

CN1C(=O)/C(=C\c2ccco2)N=C1c1ccc(Cl)cc1Cl gave an IC50 of 12.8 µM.

CCOC(=O)c1c(NC(=O)CSc2nnnn2-c2ccc(OC)cc2)sc(C)c1C gave an IC50 of 4.12 µM.

For Cc1cccc(CN2C(=O)/C(=C\c3ccc(C(=O)NCCCN4CCN(C)CC4)cc3)Oc3ccccc32)c1, the IC50 was 17.5 µM.

O=C(c1cc(-c2ccc(O)cc2)on1)N1CCc2ccccc2C1 gave an IC50 of 8.85 µM.

Cn1c(C(=O)Nc2ccc3c(c2)OCCO3)cc2sccc21 showed an IC50 of 12.1 µM.

O=C(CSc1cccc[n+]1[O-])Nc1ccccc1Oc1ccccc1 was tested, and the IC50 was 3.98 µM.

O=C(/C=C/c1ccco1)Nc1scc(-c2ccccc2)c1C(=O)O was tested, and the IC50 was 13.6 µM.

Compound C(=C\c1ccccc1)/C=N/Nc1nc2ccccc2[nH]1 has an IC50 of 8.63 µM.

CC1=C(C)/C(=N/OC(=O)c2cccc([N+](=O)[O-])c2)C=CC1=O was tested, and the IC50 was 8.03 µM.

For CC(C)(C)c1csc(NC(=O)c2ccc(Cl)s2)n1, the IC50 was 4.07 µM.

Work on COc1ccc(CCCC(=O)N/N=C/c2ccc(C)cc2)cc1 yielded an IC50 of 16.7 µM.

CC1(S(=O)(=O)O)CC(=O)c2ccccc2C1=O (configuration not stated) showed an IC50 of 6.57 µM.

For COc1ccc(-c2cc(-c3ccccc3O)[nH]n2)cc1, the IC50 was 9.38 µM.

Cc1cnc(NC(=O)c2sc(Nc3ccccc3)nc2N)o1 gave an IC50 of 9.39 µM.

With O=C(N/N=C/c1ccco1)c1cc2ccccc2o1 the IC50 was 8.47 µM.

Work on COC(=O)c1ccc(NC(=O)CSc2nc(=O)n3cccc(C)c3n2)cc1 yielded an IC50 of 22.7 µM.

Compound C/C(=N\Nc1ccc([N+](=O)[O-])cc1)c1ccc(O)cc1 has an IC50 of 5.17 µM.

O=c1c2cc(Br)ccc2nc(-c2ccccc2)n1O gave an IC50 of 19.1 µM.

O=Cc1cn(CCOc2ccccc2F)c2ccccc12 was tested, and the IC50 was 13 µM.

O=C(Nc1ccc2oc(-c3ccccc3)nc2c1)c1cccnc1 showed an IC50 of 5.53 µM.

For CN=c1scc(-c2cccs2)n1/N=C/c1ccc(O)c(O)c1O, the IC50 was 10.5 µM.

In the case of Oc1ccc2ccccc2c1/C=N/c1nccs1, the IC50 is reported as 10.4 µM.

Compound COc1ccc(S(=O)(=O)NCc2ccc(C)cc2)cc1 has an IC50 of 20.5 µM.

For O=C(c1ccc(-c2nc3ccccc3s2)s1)N1CCOCC1, the IC50 was 19.2 µM.

COc1ccc(C(=O)N2CCc3ccc(NC(=O)c4ccccn4)cc3C2)cc1F was tested, and the IC50 was 23.8 µM.

In the case of Nc1ccc(O)c2c1C(=O)c1ccccc1C2=O, the IC50 is reported as 11.3 µM.

Work on CC(=O)Nc1cccc(-c2cc(-c3c(Cl)cccc3Cl)no2)c1 yielded an IC50 of 11.1 µM.

In the case of O=S1(=O)N[C@@H](Cc2ccccc2)COc2cc(Br)ccc21, the IC50 is reported as 18.4 µM.

O=C(Nc1ccc(Br)c(Cl)c1)C1CC1 showed an IC50 of 18.3 µM.

Cc1ccc(Nc2nc(-c3cccnc3)nc3ccccc23)cc1 gave an IC50 of 5.21 µM.

Cc1ccc(NCc2nc3ccccc3n2CCOc2ccccc2)cc1 was tested, and the IC50 was 10.4 µM.

Work on Cc1nc(-c2ccc(NC(=O)c3ccccc3)cc2)cs1 yielded an IC50 of 13 µM.

For CC(=O)Nc1ccc(S(=O)(=O)N(Cc2cccnc2)Cc2cc3ccc(C)cc3[nH]c2=O)cc1, the IC50 was 23.1 µM.

In the case of Cc1ccc(Nc2nc(-c3sc(N)nc3C)cs2)cc1, the IC50 is reported as 13.4 µM.

Cc1csc2nc(O)c(C(=O)NC3CCCCC3)c(=O)n12 was tested, and the IC50 was 8.51 µM.

For O=C(Nc1nsc(-c2ccccc2)n1)c1cccs1, the IC50 was 8.04 µM.

CCC(C)c1ccc(NC(=O)COC(=O)C2CCCC2)cc1 (configuration not stated) showed an IC50 of 10.7 µM.

For O=C(N/N=C/c1ccc(Br)s1)c1c[nH]c2ccccc12, the IC50 was 14.9 µM.

In the case of Cc1cccn2c(=O)c(C(=O)NC3CCCCC3)c(O)nc12, the IC50 is reported as 15.6 µM.

With Cc1cccc(N=Nc2cnc(N)s2)c1 the IC50 was 15.1 µM.

O=S(=O)(CCSc1ccccn1)c1nc2ccccc2s1 gave an IC50 of 10 µM.

COc1ccccc1C(=O)Nc1nnc(-c2ccc3c(c2)CCCC3)o1 gave an IC50 of 13.8 µM.

With CCOC(=O)c1sc(=NC(=O)c2ccco2)n(C)c1C the IC50 was 14.1 µM.

In the case of COc1ccc(C2=NNC(c3cccs3)=Nc3ccc(OC)cc32)cc1, the IC50 is reported as 11.1 µM.

Compound Cc1ccc(Nc2cc(C)c3ccc(O)cc3n2)cc1C has an IC50 of 11.1 µM.

For COc1ccccc1-c1cc(C(=O)N/N=C/c2ccc(C)s2)c2ccccc2n1, the IC50 was 18.8 µM.

For CCc1sc(C(=O)Nc2ccc3c(c2)OCO3)cc1C, the IC50 was 19.2 µM.

With O=Cc1cnc2ccccc2c1-c1ccccc1 the IC50 was 6.97 µM.

For Cc1occc1C(=O)N/N=C/C(Br)=C\c1ccccc1, the IC50 was 13.7 µM.

In the case of CC(C)Oc1cc(O)c2c(=O)c(-c3ccc(O)cc3)coc2c1, the IC50 is reported as 7.38 µM.

Cc1oc2cc(O)cc(O)c2c(=O)c1-c1ccc2c(c1)OCCCO2 was tested, and the IC50 was 8.84 µM.

COc1ccc(-c2cc(-c3ccccc3)n[nH]2)c(O)c1 gave an IC50 of 18.3 µM.

Oc1ccc(Br)cc1/C=N/Nc1ccccn1 was tested, and the IC50 was 6.87 µM.

Compound CC1(C)CC2CC(C)(CN2C(=O)c2cc(-c3ccc(O)cc3)on2)C1 (configuration not stated) has an IC50 of 15.3 µM.

COc1ccc(-c2cccc(NC(=O)c3cccs3)c2)nn1 gave an IC50 of 14.2 µM.

Work on COc1ccc(N2CCN(CCC(=O)c3ccc4ccccc4c3)CC2)cc1 yielded an IC50 of 8.84 µM.

CCNC(=O)c1c(O)c2ccccc2[nH]c1=O gave an IC50 of 33.5 µM.

Compound Cn1c(=O)c(C(=O)Nc2ncccn2)c(O)c2ccccc21 has an IC50 of 8.49 µM.

CCCN(C(=O)c1ccc([N+](=O)[O-])c(C)c1)c1c(N)n(Cc2ccccc2)c(=O)[nH]c1=O gave an IC50 of 5.69 µM.

Compound O=C(O)c1ccc(N/N=C/c2ccc(-c3ccc(Br)cc3)o2)cc1 has an IC50 of 16.2 µM.

For Cc1nc2c(n1C1CCCCC1)C(=O)c1ccccc1C2=O, the IC50 was 10.8 µM.

COc1cccc(C2=NN(C(=O)c3ccco3)C(c3ccco3)C2)c1 (configuration not stated) showed an IC50 of 20.4 µM.

From PubChem BioAssay AID493002 (Sanford-Burnham Center for Chemical Genomics, 2010)
